Assays:
calvaria = experiment: Activity of inhibiting bone absorption (PTH-intensified calcium release from cultured calvaria); type: cell-based, dd mouse; conditions: Mus musculus, human PTH 1-34 1×10^-8 M, 96 hours, read-out: Inhibition Rate
Method: A calvaria of a 5 to 6 day-old dd mouse was aseptically cut off, washed with Dulbecco's modified phosphate buffered saline not containing calcium and magnesium (manufactured by Gibco Oriental Co.) and separated along the sutura of its center. One half of the calvaria so separated was cultured in 1.5 ml of Dulbecco's modified Eagle medium (manufactured by Gibco Oriental Co.) containing 15% of thermally inactivated (at 56° C. for 20 minutes) horse serum and 2.5% of fetal calf serum. The test compound was dissolved in dimethyl sulfoxide, and 10 μl (final concentration: 1×10^-4 M or 1×10-^5 M) of the solution so prepared was added to the culture. Parathyroid hormone (human PTH 1-34, manufactured by Sigma Co.) was dissolved in 0.15 M sodium chloride solution (pH 3), and 3 μl (final concentration: 1×10^-8 M) of the solution so prepared was added to the culture. The cultivation was carried out for 96 hours at 37° C. in an atmosphere consisting of 95% of air and 5% of carbon dioxide. The culture medium was once replaced with a fresh one after 48 hours from the beginning of the cultivation. The concentration of dissolved calcium (i.e., absorption of bone) from the PTH-intensified bone was determined by measuring the quantity of calcium accumulated in the culture collected in 96 hours of cultivation, whereby the concentration of total calcium contained in the culture was measured with Calcium C-Test Wako (manufactured by Wako Pure Chemicals Co., Ltd.), and the inhibition rate was calculated therefrom in accordance with the equation set forth below. [formula] Cd : Total calcium concentration in the culture treated with both test compound and PTH
Cp : Total calcium concentration in the culture treated with PTH alone
Co Total calcium concentration in the culture treated with neither test compound nor PTH

dd-strain male mice = experiment: Acute toxicity test; type: in vivo; conditions: orally administered, mortality for 7 days
Method: A test compound was orally administered to three dd-strain male mice weighting 20±1 g. The minimum lethal dose (MLD) was determined by observing the mortality for 7 days after the administration.

[1] = test system: cells obtained from the spleen of Balb/c mice sensitized with sheep red blood cells; experiment: Plaque Forming Cell Assay (inhibition of antibody production); type: cell-based, Balb/c strain male mice; conditions: for inhibition at 100 µM / inhibition at 10 µM: Mus musculus, Erythrocyte, inhibition of antibody production, read-out: Inhibition Rate
Method: The method developed by Jerne [Science, 140, 405 (1963)] and Yamamoto, et al [Drugs. Exptl. Clin. res., 8, 5 (1982)] were modified for plaque forming cell assay.
That is, Balb/c strain male mice (age of 7 weeks, Charles River Japan Inc.) were sensitized with 1×10^8 sheep red blood cells (Bio Test Research Institute) and the spleen was extirpated on the sixth or seventh day. The cells obtained from the spleen were treated with ACT solution (Tris-ammonium chloride isotonic buffer) to remove red blood cells. The cells were washed three times with RPMI-1640 medium (Nissui Pharmaceutical Co. . The cells (1×10^7) were incubated in RPMI-1640 medium containing 10% calf fetal serum (Gibco Co.), 50 μg/ml streptomycin, 50 IU/ml of penicillin, 2-mercaptoethanol (5×10^-5 M), sheep red blood cells (5×10^6 cells) and a test compound dissolved in dimethyl sulfoxide supplied on a microculture plate (NUNC Co., 24 wells) in a carbon dioxide gas incubator (TABAI ESPEC CORP) at 37° C. for 5 days.
After completion of the incubation, the cells were transferred to a plastic test tube and centrifuged at 2000 rpm. After the supernatant was removed, the cells were resuspended in 1 ml of RPMI-1640 medium. The cell suspension was sealed in a Cunnigham chamber (Takahashi Giken Co.) together with sheep red blood cells and guinea pig complement (Cedarlane Research Institute) according to the method of Cunnigham [Immunology, 14, 599 (1968)] and incubated at 37° C. for 1 to 2 hours. Direct plaque forming cell (PFC) count was counted.
A rate of inhibiting antibody production by the test compound was determined by the following equation. [formula] A : PFC count in the absence of test compound (dimethylsulfoxide alone) B : PFC count in the presence of test compound

Compound	inhibition at 100 µM (calvaria)	minimum lethal dose (MLD) (dd-strain male mice)	inhibition at 10 µM (calvaria)	Direct PFC Count (mean ± S.E.M.) ([1]; 10^-4 M)	Direct PFC Count (mean ± S.E.M.) ([1]; 10^-5 M)	inhibition at 100 µM ([1]; 10^-4 M)	inhibition at 10 µM ([1]; 10^-5 M)
O=C(Nc1ccncc1)c1c(O)c2sccc2[nH]c1=O [Compound 2, 4,5-Dihydro-7-hydroxy-5-oxo-N-(4-pyridyl)thieno[3,2-b]-pyridine-6-carboxamide]	51%	–	–	–	–	–	–
O=C(Nc1cccnc1)c1c(O)c2sccc2[nH]c1=O [Compound 1, 4,5-Dihydro-7-hydroxy-5-oxo-N-(3-pyridyl)thieno[3,2-b]-pyridine-6-carboxamide]	-1%	–	–	–	–	–	–
O=C(Nc1ccncc1)c1c(O)c2ccsc2[nH]c1=O [Compound 7, 6,7-Dihydro-4-hydroxy-6-oxo-N-(4-pyridyl)thieno[2,3-b]-pyridine-5-carboxamide]	–	> 300 mg/kg	32%	–	–	–	–
CCCCn1c(=O)c(C(=O)Nc2cccnc2)c(O)c2ccsc21 [Compound 6, 7-(n-Butyl)-6,7-dihydro-4-hydroxy-6-oxo-N-(3-pyridyl)thieno-[2,3-b]pyridine-5-carboxamide]	–	–	38%	42 ± 29	59 ± 29	99.2%	98.8%
O=C(Nc1cccnc1)c1c(O)c2ccsc2[nH]c1=O [Compound 8, 6,7-Dihydro-4-hydroxy-6-oxo-N-(3-pyridyl)thieno[2,3-b]-pyridine-5-carboxamide]	–	–	18%	–	–	–	–
CCCCn1c(=O)c(C(=O)Nc2ccncc2)c(O)c2ccsc21 [Compound 5, 7-(n-Butyl)-6,7-dihydro-4-hydroxy-6-oxo-N-(4-pyridyl)thieno-[2,3-b]pyridine-5-carboxamide]	–	–	53%	109 ± 77	227 ± 131	97.8%	95.5%
CCCCn1c(=O)c(C(=O)Nc2cccnc2)c(O)c2sccc21 [Compound 4, 4-(n-Butyl)-4,5-dihydro-7-hydroxy-5-oxo-N-(3-pyridyl)thieno-[3,2-b]pyridine-6-carboxamide]	–	> 300 mg/kg	58%	336 ± 124	395 ± 52	93.3%	92.1%
CCCCn1c(=O)c(C(=O)Nc2ccncc2)c(O)c2sccc21 [Compound 3, 4-(n-Butyl)-4,5-dihydro-7-hydroxy-5-oxo-N-(4-pyridyl)thieno-[3,2-b]pyridine-6-carboxamide]	–	–	141%	101 ± 76	59 ± 38	98%	98.8%

Source: US5219864A, “Thienopyridine derivatives” (Kyowa Hakko Kogyo Co., Ltd., priority 1991, dated 1993)
